Results as given in patent US12076304B2, “Compositions comprising 15-HEPE and methods of treating or preventing hematologic disorders, and/or related diseases” (priority 2020, dated 2024).
Entries after “also recorded” stand apart in the source; their conditions may differ.

Columns and labels:
Format in all cases: in vivo
[1] = tested on: UUO-induced renal interstitial fibrosis; experiment: UUO mice: kidney hydroxyproline content; settings: for Kidney hydroxyproline: n = 8
Protocol: Measurement of Kidney Biochemistry: To quantify kidney hydroxyproline content, frozen left kidney samples were processed by an alkaline-acid hydrolysis method as follows: kidney samples were dissolved in 2 normal (N) sodium hydroxide (NaOH) at 65° C. and autoclaved at 121° C. for 20 minutes. The lysed samples (400 μL) were acid-hydrolyzed with 400 μL of 6N hydrochloride acid (HCl) at 121° C. for 20 minutes, and neutralized with 400 μL of 4N NaOH containing 10 mg/mL of activated carbon. An AC buffer (e.g., 2.2M acetic acid/0.48M citric acid, 400 μL) was added to the samples, followed by centrifugation to collect the supernatant. A standard curve of hydroxyproline was constructed with serial dilutions of trans-4-hydroxy-L-proline (Sigma-Aldrich, USA) starting at 16 μg/mL. The prepared samples and standards (e.g., each 400 μL) were mixed with 400 μL chloramine T solution (Wako Pure Chemical Industries, Japan) and incubated for 25 minutes at room temperature. The samples were then mixed with Ehrlich's solution (e.g., 400 μL) and heated at 65° C. for 20 minutes to develop the color. After samples were cooled on ice and centrifuged to remove precipitates, the optical density of each supernatant was measured at 560 nanometers (nm). The concentrations of hydroxyproline were calculated from the hydroxyproline standard curve. Protein concentrations of kidney samples were determined using a bicinchoninic (BCA) protein assay kit (Thermo Fisher Scientific, USA) and used to normalize the calculated hydroxyproline values. Kidney hydroxyproline contents were expressed as microgram (μg) per mg protein.
Sample Collection: For serum samples, non-fasting blood was collected in serum separate tubes without anticoagulant through direct cardiac puncture and centrifuged at 3,500×g for 4 minutes at 4° C. The supernatant was collected and stored at −80° C. for shipping. For kidney samples, the left kidney was collected and cut into 2 pieces horizontally. […] Paraffin blocks were stored at room temperature for histological analyses. […] The anterior part of left kidney was snap frozen in liquid nitrogen and stored at −80° C. for gene expression assay. The posterior part of left kidney was snap frozen in liquid nitrogen and stored at −80° C. for kidney biochemistry.

[2] = tested on: UUO-induced renal interstitial fibrosis; experiment: UUO mice: Sirius red staining of kidney sections, fibrosis area; settings: for Sirius red-positive area / Sirius red-positive area (%) _Median: UUO mice kidney, Day 14, n = 8; for Sirius red-positive area: mean ± SD; for fibrosis area compared with the Vehicle group: UUO mice
Protocol: Histopathological analysis: To visualize collagen deposition, kidney sections were stained using picro-Sirius red solution (Waldeck, Germany). For quantification of interstitial fibrosis area, bright field images in the corticomedullary region were captured using a digital camera (e.g., DFC295; Leica Microsystems, Germany) at 200-fold magnification, and the positive areas in 5 fields/section were measured using ImageJ software (National Institute of Health, USA).

Alpha-SMA mRNA = experiment: UUO mice kidney quantitative RT-PCR, Alpha-SMA
Protocol: (§1) Quantitative RT-PCR: Total ribonucleic acid (RNA) was extracted from kidney samples using RNAiso (Takara Bio, Japan) according to the manufacturer's instructions. One μg of RNA was reverse-transcribed using a reaction mixture containing […] (mM) of magnesium chloride (MgCl2) (F. Hoffmann-La Roche, Switzerland), 40 U RNase inhibitor (Toyobo, Japan), 0.5 mM dNTP (Promega, USA), 6.28 μM random hexamer (Promega), 5× first strand buffer (Promega), 10 mM dithiothreitol (Invitrogen, USA) and 200 U MMLV-RT (Invitrogen) in a final volume of 20 μL. The reaction was carried out for 1 hour at 37° C., followed by 5 minutes at 99° C. Real-time PCR was performed using real-time PCR DICE and TB Green™ Premix Ex Taq™ II (Takara Bio). To calculate the relative […] (mRNA) expression level, the expression of each gene (e.g., α-SMA, TIMP-1, TGF-β and Collagen Type 1) was normalized to that of reference gene 36B4 (gene symbol: Rplp0). Information regarding the PCR-primer sets and the plate layout are described in Tables 1 and 2.

TIMP-1 mRNA = experiment: UUO mice kidney quantitative RT-PCR, TIMP-1
Protocol: as §1

TGF-β mRNA = experiment: UUO mice kidney quantitative RT-PCR, TGF-β
Protocol: as §1

Collagen Type 1 mRNA = experiment: UUO mice kidney quantitative RT-PCR, Collagen Type 1
Protocol: as §1

[3] = 50 mg/kg PO QD Day 0-13, Day 14, mean ± SD
[4] = 50 mg/kg PO QD Day 0-13, Mann-Whitney U test, trend p<0.1, 50 mg/kg
[5] = 5 mg/kg PO QD Day 0-13, normalized to 36B4, Sham 1.00, mean ± SD
[6] = 50 mg/kg PO QD Day 0-13, normalized to 36B4, Sham 1.00, mean ± SD
[7] = 250 mg/kg PO QD Day 0-13, normalized to 36B4, Sham 1.00, mean ± SD
[8] = 500 mg/kg PO QD Day 0-13, normalized to 36B4, Sham 1.00, mean ± SD

## CCCCCC(O)/C=C/C=C\C/C=C\CCCCCCC(=O)O (stereo not shown) [DS109, 15-HETrE]
[1]; 5 mg/kg PO QD Day 0-13, Day 14, mean ± SD
  Kidney hydroxyproline: 9.94 ± 2.02 μg/mg total protein
[1]; 5 mg/kg PO QD Day 0-13, significance p<0.05
  kidney hydroxyproline contents compared with the Vehicle group: significant decreases
[1]; [3]
  Kidney hydroxyproline: 13.94 ± 6.44 μg/mg total protein
[1]; 50 mg/kg PO QD Day 0-13, significance p<0.05
  kidney hydroxyproline contents compared with the Vehicle group: no significant difference
[1]; 250 mg/kg PO QD Day 0-13, Day 14, mean ± SD
  Kidney hydroxyproline: 8.30 ± 1.04 μg/mg total protein
[1]; 250 mg/kg PO QD Day 0-13, significance p<0.05
  kidney hydroxyproline contents compared with the Vehicle group: significant decreases
[2]; 5 mg/kg PO QD Day 0-13
  Sirius red-positive area: 4.23 ± 1.90%
  Sirius red-positive area (%) _Median: 3.22 ± 1.47%
[2]; 50 mg/kg PO QD Day 0-13
  Sirius red-positive area: 3.58 ± 1.04%
  Sirius red-positive area (%) _Median: 3.28 ± 1.41%
[2]; 250 mg/kg PO QD Day 0-13
  Sirius red-positive area: 4.71 ± 0.96%
  Sirius red-positive area (%) _Median: 3.76 ± 0.81%
[2]; 5 mg/kg PO QD Day 0-13, Mann-Whitney U test, trend p<0.1, 5 mg/kg
  fibrosis area compared with the Vehicle group: tended to decrease; also recorded: reduction trend
[2]; 50 mg/kg PO QD Day 0-13, Bonferroni Multiple Comparison
  fibrosis area compared with the Vehicle group: tended to decrease
[2]; [4]
  fibrosis area compared with the Vehicle group: tended to decrease; also recorded: reduction trend
[2]; 250 mg/kg PO QD Day 0-13, Mann-Whitney U test, trend p<0.1, 250 mg/kg
  fibrosis area compared with the Vehicle group: tended to decrease; also recorded: reduction trend
Alpha-SMA mRNA; [5]
  Alpha-SMA relative mRNA expression level: 3.87 ± 0.82
Alpha-SMA mRNA; [6]
  Alpha-SMA relative mRNA expression level: 4.61 ± 3.15
Alpha-SMA mRNA; [7]
  Alpha-SMA relative mRNA expression level: 4.85 ± 1.22
TIMP-1 mRNA; [5]
  TIMP-1 relative mRNA expression level: 153.60 ± 37.12
TIMP-1 mRNA; [6]
  TIMP-1 relative mRNA expression level: 167.70 ± 122.60
TIMP-1 mRNA; [7]
  TIMP-1 relative mRNA expression level: 180.90 ± 23.12
TGF-β mRNA; [5]
  TGF-β relative mRNA expression level: 4.29 ± 0.93
TGF-β mRNA; [6]
  TGF-β relative mRNA expression level: 6.01 ± 4.77
TGF-β mRNA; [7]
  TGF-β relative mRNA expression level: 5.48 ± 0.36
Collagen Type 1 mRNA; [5]
  Collagen Type 1 relative mRNA expression level: 10.76 ± 1.45
Collagen Type 1 mRNA; [6]
  Collagen Type 1 relative mRNA expression level: 15.23 ± 11.52
Collagen Type 1 mRNA; [7]
  Collagen Type 1 relative mRNA expression level: 13.88 ± 1.91

## 15-HEPE [DS102]
[1]; [3]
  Kidney hydroxyproline: 8.47 ± 2.08 μg/mg total protein
[1]; 50 mg/kg PO QD Day 0-13, significance p<0.05, 50 mg/kg
  kidney hydroxyproline contents compared with the Vehicle group: significant decrease
[1]; 500 mg/kg PO QD Day 0-13, Day 14, mean ± SD
  Kidney hydroxyproline: 8.59 ± 1.99 μg/mg total protein
[1]; 500 mg/kg PO QD Day 0-13, significance p<0.05
  kidney hydroxyproline contents compared with the Vehicle group: significant decreases
[2]; 50 mg/kg PO QD Day 0-13
  Sirius red-positive area: 5.01 ± 3.11%
  Sirius red-positive area (%) _Median: 4.19 ± 3.33%
[2]; 500 mg/kg PO QD Day 0-13
  Sirius red-positive area: 4.01 ± 1.92%
  Sirius red-positive area (%) _Median: 3.08 ± 1.16%
[2]; [4]
  fibrosis area compared with the Vehicle group: tended to decrease; also recorded: reduction trend
[2]; 500 mg/kg PO QD Day 0-13, Mann-Whitney U test, trend p<0.1, 500 mg/kg
  fibrosis area compared with the Vehicle group: tended to decrease; also recorded: reduction trend
Alpha-SMA mRNA; [6]
  Alpha-SMA relative mRNA expression level: 3.74 ± 0.81
Alpha-SMA mRNA; [8]
  Alpha-SMA relative mRNA expression level: 5.54 ± 1.54
TIMP-1 mRNA; [6]
  TIMP-1 relative mRNA expression level: 138.30 ± 30.39
TIMP-1 mRNA; [8]
  TIMP-1 relative mRNA expression level: 124.80 ± 28.60
TGF-β mRNA; [6]
  TGF-β relative mRNA expression level: 4.31 ± 0.69
TGF-β mRNA; [8]
  TGF-β relative mRNA expression level: 5.37 ± 0.76
Collagen Type 1 mRNA; [6]
  Collagen Type 1 relative mRNA expression level: 11.80 ± 1.78
Collagen Type 1 mRNA; [8]
  Collagen Type 1 relative mRNA expression level: 14.09 ± 2.88
